{"source": "patent US20160158376A1", "about": "(priority 2013, published 2016)", "key": {"[1]": {"conditions": "mouse; Proffitt et al. 1991; cited from earlier work"}, "Candida albicans": {"test_system": "Candida albicans", "test": "Pharmacodynamic assay, immunodepleted mice infected with Candida albicans", "type": "in vivo", "conditions": "for Number of animal death: mice (20 per group), tail vein, day 7", "description": "Method: Mice whose immunity was depleted by conventional method (white cell count≦100) were infected with Candida albicans, and randomly divided into eight groups, 20 per group. Mice received the treatment outlined in the following table by injection through the tail vein. […] Continuously monitoring animal survival for seven days, and counting the number of dead mice on day 7."}, "[2]": {"conditions": "rat, cited from earlier work"}, "[3]": {"conditions": "cited from earlier work"}, "[4]": {"test": "Solubility assay of the polyconjugate", "type": "physicochemical", "conditions": "water, room temperature (22˜25° C.), as active drug"}}, "note": "Read-outs that look alike come from different tables or passages of the source.", "data": [{"compound": "CC1O[C@@H](O[C@H]2/C=C/C=C/C=C/C=C/C=C/C=C/C=C/[C@H](C)[C@@H](O)[C@@H](C)[C@H](C)OC(=O)C[C@H](O)C[C@H](O)CC[C@@H](O)[C@H](O)C[C@H](O)C[C@]3(O)C[C@H](O)[C@@H](C(=O)O)[C@H](C2)O3)C(O)C(N)[C@@H]1O", "note": "(stereo partly drawn) [amphotericin B]", "values": [{"measurement": "LD50", "setting": "[1]", "result": 2.3, "unit": "mg/kg"}, {"measurement": "Number of animal death", "setting": "Candida albicans; 1 mg/kg as amphotericin B", "result": 10, "unit": "dead"}, {"measurement": "Number of animal death", "setting": "Candida albicans; 2 mg/kg as amphotericin B", "result": 3, "unit": "dead"}, {"measurement": "50% effective dose", "setting": "Candida albicans; mice infected with Candida albicans, survival at day 7, as amphotericin B", "result": "about 1 mg/kg"}, {"measurement": "LD50", "setting": "[2]; intravenous, Pfizer material safety data sheet", "result": 1.6, "unit": "mg/kg"}, {"measurement": "LD50", "setting": "[2]; Proffitt et al. 1991", "result": 1.6, "unit": "mg/kg"}, {"measurement": "solubility in water", "setting": "[3]", "result": "insoluble"}]}, {"compound": "amphotericin B-hydroxyethyl starch polyconjugate [Preparation 22]", "values": [{"measurement": "solubility (amount of the soluble active drug)", "setting": "[4]", "result": 0.026, "unit": "%"}]}, {"compound": "poly-aspartic acid-amphotericin B polyconjugate [Preparation 1]", "values": [{"measurement": "Number of animal death", "setting": "Candida albicans; 0.25 mg/kg as amphotericin B", "result": 5, "unit": "dead"}, {"measurement": "Number of animal death", "setting": "Candida albicans; 0.5 mg/kg as amphotericin B", "result": 0, "unit": "dead"}, {"measurement": "Number of animal death", "setting": "Candida albicans; 1 mg/kg as amphotericin B", "result": 0, "unit": "dead"}, {"measurement": "Number of animal death", "setting": "Candida albicans; 2 mg/kg as amphotericin B", "result": 0, "unit": "dead"}]}]}
